Source: publication PMC5358098 (ACS chemical neuroscience, 2016)

Tests used:
[1] = molecular target: CB1R (Homo sapiens, UniProt P21554); assay: cell-based; type: cell-based; details: read-out: Emax (% cAMP inhibition), agonist alone
[2] = molecular target: CB1R (Mus musculus, UniProt P47746)
Sequence of CB1R (Mus musculus, UniProt P47746) (P47746 whole entry): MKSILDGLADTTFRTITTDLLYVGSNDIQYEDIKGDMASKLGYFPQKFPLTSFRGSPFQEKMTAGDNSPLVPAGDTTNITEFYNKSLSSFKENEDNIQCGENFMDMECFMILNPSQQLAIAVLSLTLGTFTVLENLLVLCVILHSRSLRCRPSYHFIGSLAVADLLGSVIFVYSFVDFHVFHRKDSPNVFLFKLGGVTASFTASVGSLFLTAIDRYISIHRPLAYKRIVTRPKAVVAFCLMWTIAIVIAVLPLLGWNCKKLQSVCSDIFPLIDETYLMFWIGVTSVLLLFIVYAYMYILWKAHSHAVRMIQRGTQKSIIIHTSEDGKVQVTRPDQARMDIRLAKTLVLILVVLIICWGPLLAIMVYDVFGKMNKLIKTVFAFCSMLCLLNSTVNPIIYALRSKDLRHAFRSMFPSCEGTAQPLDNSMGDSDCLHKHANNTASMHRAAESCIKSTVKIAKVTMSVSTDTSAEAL

Sequence of CB1R (Homo sapiens, UniProt P21554) (P21554 whole entry): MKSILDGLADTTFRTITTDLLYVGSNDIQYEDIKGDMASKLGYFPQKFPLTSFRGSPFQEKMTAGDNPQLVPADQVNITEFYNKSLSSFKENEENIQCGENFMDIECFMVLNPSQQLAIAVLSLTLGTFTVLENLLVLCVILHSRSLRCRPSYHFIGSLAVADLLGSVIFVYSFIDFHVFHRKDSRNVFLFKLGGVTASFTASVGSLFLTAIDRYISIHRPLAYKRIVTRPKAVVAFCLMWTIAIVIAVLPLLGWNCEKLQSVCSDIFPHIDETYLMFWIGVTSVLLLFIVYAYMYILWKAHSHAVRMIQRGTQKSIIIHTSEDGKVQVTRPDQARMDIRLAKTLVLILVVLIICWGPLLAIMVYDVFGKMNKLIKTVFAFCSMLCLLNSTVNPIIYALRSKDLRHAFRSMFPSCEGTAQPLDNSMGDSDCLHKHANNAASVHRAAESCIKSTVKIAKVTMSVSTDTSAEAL

## CCCCCCC(C)(C)c1ccc([C@@H]2C[C@H](O)CC[C@H]2CCCO)c(O)c1 [CP55,940, 2-[(1R,2R,5R)-5-hydroxy-2-(3-hydroxypropyl)cyclohexyl]-5-(2-methyloctan-2-yl)phenol]
[1]
  Emax: 106 ± 11.4%
[2]
  CB1R internalization, agonist alone: sustained CB1R internalization beginning at 30 min
